pIC50: −log10 of the molar value.
Molecular target: T1, human DGAT2 (hDGAT2) (Homo sapiens, UniProt Q96PD7)
T1 construct: made in house; host or cells: Sf-9 insect cells (baculovirus), membrane fraction
T1 sequence (Q96PD7 1-388): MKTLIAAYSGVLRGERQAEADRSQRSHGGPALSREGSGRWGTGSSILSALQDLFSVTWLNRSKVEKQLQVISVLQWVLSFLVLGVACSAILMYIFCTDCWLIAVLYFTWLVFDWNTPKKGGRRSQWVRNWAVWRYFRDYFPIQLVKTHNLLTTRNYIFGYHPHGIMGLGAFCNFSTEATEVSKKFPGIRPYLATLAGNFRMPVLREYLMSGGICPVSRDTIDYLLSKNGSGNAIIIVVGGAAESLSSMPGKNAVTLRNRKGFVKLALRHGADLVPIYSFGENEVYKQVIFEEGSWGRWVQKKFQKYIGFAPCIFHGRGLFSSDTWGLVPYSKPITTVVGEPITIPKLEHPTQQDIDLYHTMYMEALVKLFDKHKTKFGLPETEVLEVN
Assay: DGAT2 Enzymatic Activity Assay
Assay type: biochemical
Conditions: membrane prep of Sf-9 cells expressing hDGAT2; 13C18-triolein product by LC/MS/MS; 25 μM diolein, 5 μM 13C oleoyl-CoA, rt
Method: Sf-9 insect cells were maintained in Grace's insect cell culture medium with 10% heated-inactivated fetal bovine serum, 1% Pluronic F-68 and 0.14 μg/ml Kanamycine sulfate at 27° C. in a shaker incubator. After infection with untagged baculovirus expressing human DGAT2 (hDGAT2) at multiplicity of infection (MOI) 3 for 48 hours, cells were harvested. Cell pellets were suspended in buffer containing 10 mM Tris-HCl pH 7.5, 1 mM EDTA, 250 mM sucrose and Complete Protease Inhibitor Cocktail (Sigma Aldrich), and sonicated on ice. Cell debris were removed by centrifugation at 2000×g for 15 minutes. Membrane fractions were isolated by ultracentrifugation (100,000×g), resuspended in the same buffer, and frozen (−80° C.) for later use. The protein concentration was determined with the Pierce™ BCA Protein Assay Kit (Thermo Fisher Scientific).
LC/MS/MS analyses were performed using Thermal Fisher's LX4-TSQ Vantage system. This system consists of an Agilent binary high-performance liquid chromatography (HPLC) pump and a TSQ Vantage triple quadrupole MS/MS instrument. For each sample, 2 μL samples from the top organic layer of in-plate liquid-liquid extraction were injected onto a Thermo Betabasic C4 column (2.1 mm×20 mm, 5 μm particle size). The samples were then eluted using the following conditions; mobile phase: Isopropanol:acetonitrile/10 mM ammonium formate=50/35/15 (v/v/v), flow rate: 0.8 mL/min, temperature: 25° C. Data was acquired in positive mode using a heated electrospray ionization (HESI) interface. The operational parameters for the TSQ Vantage MS/MS instrument were a spray voltage of 3000 V, capillary temperature of 280° C., vaporizer temperature 400° C., sheath gas 45 arbitrary unit. Aux gas 10 arbitrary units. […] The peak area was integrated by Xcalibur Quan software. The ratio between the ^13C18 triolein generated in the reaction and spiked in internal standard ^13C21-triolein was used to generate percentage inhibition and IC50 values. Compound percentage inhibition was calculated by the following formula: Inhibition %=1−[(compound response−low control)/(high control−low control)]×100%.
DGAT2 activity was determined by measuring the amount of enzymatic product ^13C18-triolein (^13C-1,2,3-Tri(cis-9-octadecenoyl)glycerol) using the membrane prep mentioned above. The assay was carried out in ABgene 384-well assay plates in a final volume of 25 μL at rt.

SMILES | pIC50
CC(C)c1c(Oc2ncc(Cl)cc2OCC(F)(F)F)ccc2nc(C(=O)NC3(C)CS(=O)(=O)C3)cn12 [Example 55, 6-[[5-chloro-3-(2,2,2-trifluoroethoxy)-2-pyridyl]oxy]-5-isopropyl-N-(3-methyl-1,1-dioxo-thietan-3-yl)imidazo[1,2-a]pyridine-2-carboxamide] | 7.05
CC1(NC(=O)c2cn3cc(Oc4ncccc4OCC(F)(F)F)cc(C(F)(F)F)c3n2)CCS(=O)(=O)CC1 [Example 56, N-(4-methyl-1,1-dioxo-thian-4-yl)-6-[[3-(2,2,2-trifluoroethoxy)-2-pyridyl]oxy]-8-(trifluoromethyl)imidazo[1,2-a]pyridine-2-carboxamide] | < 5.00
CCOc1cccnc1Oc1ccc2nc(C(=O)Nc3ccc(C)nn3)cn2c1 [Example 57, 6-[(3-ethoxy-2-pyridyl)oxy]-N-(6-methylpyridazin-3-yl)imidazo[1,2-a]pyridine-2-carboxamide] | 5.95
CCC(F)(F)c1cccnc1Oc1ccc2nc(C(=O)NC3(C)CCS(=O)(=O)CC3)cn2c1 [Example 58, 6-[[3-(1,1-difluoropropyl)-2-pyridyl]oxy]-N-(4-methyl-1,1-dioxo-thian-4-yl)imidazo[1,2-a]pyridine-2-carboxamide] | 6.58
CCc1cc2nc(C(=O)NC3(C)CCS(=O)(=O)CC3)cn2cc1Oc1ncc(Cl)cc1OCC(F)(F)F [Example 59, 6-((5-Chloro-3-(2,2,2-trifluoroethoxy)pyridin-2-yl)oxy)-7-ethyl-N-(4-methyl-1,1-dioxidotetrahydro-2H-thiopyran-4-yl)imidazo[1,2-a]pyridine-2-carboxamide] | 8.05
CC1(NC(=O)c2cn3cc(Oc4ncccc4O)ccc3n2)CCS(=O)(=O)CC1 [Example 60, 6-[(3-hydroxy-2-pyridyl)oxy]-N-(4-methyl-1,1-dioxo-thian-4-yl)imidazo[1,2-a]pyridine-2-carboxamide] | < 5.00
Cc1c(C(=O)NC2(C)CCS(=O)(=O)CC2)nc2ccc(Oc3ncc(Cl)cc3OCC(F)(F)F)cn12 [Example 61, 6-[[5-chloro-3-(2,2,2-trifluoroethoxy)-2-pyridyl]oxy]-3-methyl-N-(4-methyl-1,1-dioxo-thian-4-yl)imidazo[1,2-a]pyridine-2-carboxamide] | 8.52
Cc1c(C(=O)NC2(CC(F)(F)F)CCS(=O)(=O)CC2)nc2ccc(Oc3ncc(F)cc3OCC(F)F)cn12 [Example 62, 6-[[3-(2,2-difluoroethoxy)-5-fluoro-2-pyridyl]oxy]-N-[1,1-dioxo-4-(2,2,2-trifluoroethyl)thian-4-yl]-3-methyl-imidazo[1,2-a]pyridine-2-carboxamide] | 8.82
Cc1c(C(=O)NC2(C)CCS(=O)(=O)C(C)(C)C2)nc2ccc(Oc3ncc(F)cc3OCC(F)F)cn12 (stereo not drawn) [Example 64] | 8.77
Cc1c(C(=O)NC2(C(C)C)CCS(=O)(=O)CC2)nc2ccc(Oc3ncc(F)cc3OCC(F)F)cn12 [Example 65, 6-[[3-(2,2-difluoroethoxy)-5-fluoro-2-pyridyl]oxy]-N-(4-isopropyl-1,1-dioxo-thian-4-yl)-3-methyl-imidazo[1,2-a]pyridine-2-carboxamide] | 6.36

Other lines, results leading:

pIC50 | SMILES
9.10 | CCC1(NC(=O)c2nc3ccc(Oc4ncc(F)cc4OCC(F)F)cn3c2C)CCS(=O)(=O)CC1 [Example 66, 6-[[3-(2,2-difluoroethoxy)-5-fluoro-2-pyridyl]oxy]-N-(4-ethyl-1,1-dioxo-thian-4-yl)-3-methyl-imidazo[1,2-a]pyridine-2-carboxamide]
9.10 | Cc1c(C(=O)NC2(C)CCS(=O)(=O)CC2)nc2ccc(Oc3ncc(F)cc3OCC3(F)CC3)cn12 [Example 68]
8.70 | CCOc1cc(Cl)cnc1Oc1ccc2nc(C(=O)NC3(C)CS(=O)(=O)C3)c(C)n2c1 [Example 69, 6-[(5-chloro-3-ethoxy-2-pyridyl)oxy]-3-methyl-N-(3-methyl-1,1-dioxo-thietan-3-yl)imidazo[1,2-a]pyridine-2-carboxamide]
7.13 | CCC1(NC(=O)c2nc3ccc(Oc4ncc(F)cc4OCC(F)F)cn3c2C)CS(=O)(=O)C1 [Example 70, 6-[[3-(2,2-difluoroethoxy)-5-fluoro-2-pyridyl]oxy]-N-(3-ethyl-1,1-dioxo-thietan-3-yl)-3-methyl-imidazo[1,2-a]pyridine-2-carboxamide]
8.85 | Cc1c(C(=O)NC2(C)CCS(=O)(=O)CC2)nc2ccc(Oc3ncc(Cl)cc3OCC(F)F)cn12 [Example 71, 6-[[5-chloro-3-(2,2-difluoroethoxy)-2-pyridyl]oxy]-3-methyl-N-(4-methyl-1,1-dioxo-thian-4-yl)imidazo[1,2-a]pyridine-2-carboxamide]
8.59 | Cc1c(C(=O)NC2(C)CCS(=O)(=O)CC2)nc2ccc(Oc3ncc(F)cc3OCC(F)F)cn12 [Example 73, 6-[[3-(2,2-difluoroethoxy)-5-fluoro-2-pyridyl]oxy]-3-methyl-N-(4-methyl-1,1-dioxo-thian-4-yl)imidazo[1,2-a]pyridine-2-carboxamide]
8.17 | Cc1c(C(=O)NC2(C)CS(=O)(=O)C2)nc2ccc(Oc3ncc(F)cc3OCC(F)F)cn12 [Example 74, 6-[[3-(2,2-difluoroethoxy)-5-fluoro-2-pyridyl]oxy]-3-methyl-N-(3-methyl-1,1-dioxo-thietan-3-yl)imidazo[1,2-a]pyridine-2-carboxamide]
8.18 | Cc1c(C(=O)NC2(C)CCS(=O)(=O)CC2)nc2ccc(Oc3ncc(C(C)C)cc3OCC(F)(F)F)cn12 [Example 75, 6-[[5-isopropyl-3-(2,2,2-trifluoroethoxy)-2-pyridyl]oxy]-3-methyl-N-(4-methyl-1,1-dioxo-thian-4-yl)imidazo[1,2-a]pyridine-2-carboxamide]
8.92 | Cc1c(C(=O)NC2(CC#N)CCS(=O)(=O)CC2)nc2ccc(Oc3ncc(Cl)cc3OCC(F)F)cn12 [Example 76, 6-[[5-chloro-3-(2,2-difluoroethoxy)-2-pyridyl]oxy]-N-[4-(cyanomethyl)-1,1-dioxo-thian-4-yl]-3-methyl-imidazo[1,2-a]pyridine-2-carboxamide]
7.48 | CCC1(NC(=O)c2nc3ccc(Oc4ncc(F)cc4OCC(F)(F)F)cn3c2C)CCS(=O)(=O)CC1 [Example 77, N-(4-ethyl-1,1-dioxo-thian-4-yl)-6-[[5-fluoro-3-(2,2,2-trifluoroethoxy)-2-pyridyl]oxy]-3-methyl-imidazo[1,2-a]pyridine-2-carboxamide]
8.52 | Cc1cnc(Oc2ccc3nc(C(=O)NC4(C)CCS(=O)(=O)CC4)c(C)n3c2)c(OCC(F)(F)F)n1 [Example 78, 3-methyl-N-(4-methyl-1,1-dioxo-thian-4-yl)-6-[5-methyl-3-(2,2,2-trifluoroethoxy)pyrazin-2-yl]oxy-imidazo[1,2-a]pyridine-2-carboxamide]
8.17 | CCc1cnc(Oc2ccc3nc(C(=O)NC4(C)CS(=O)(=O)C4)c(C)n3c2)c(OCC(F)(F)F)c1 [Example 79, 6-[[5-ethyl-3-(2,2,2-trifluoroethoxy)-2-pyridyl]oxy]-3-methyl-N-(3-methyl-1,1-dioxo-thietan-3-yl)imidazo[1,2-a]pyridine-2-carboxamide]
8.42 | Cc1c(C(=O)NC2CS(=O)(=O)C2(C)C)nc2ccc(Oc3ncc(Cl)cc3OCC(F)F)cn12 (stereo not drawn) [Example 80, 6-[[5-chloro-3-(2,2-difluoroethoxy)-2-pyridyl]oxy]-N-(2,2-dimethyl-1,1-dioxo-thietan-3-yl)-3-methyl-imidazo[1,2-a]pyridine-2-carboxamide]
8.46 | Cc1c(C(=O)NC2(C)CCS(=O)(=O)CC2)nc2ccc(Oc3ncc(Cl)cc3OCC3(F)CC3)cn12 [Example 81, 6-[[5-chloro-3-[(1-fluorocyclopropyl)methoxy]-2-pyridyl]oxy]-3-methyl-N-(4-methyl-1,1-dioxo-thian-4-yl)imidazo[1,2-a]pyridine-2-carboxamide]
